Tests used:
human NK1 receptor = human NK1 receptor (Homo sapiens (Human), UniProt P25103); experiment: Human NK1 radioligand binding assay ([3H] substance P)
Protocol: (§1) Membrane suspensions were prepared from these cells.

human NK2 receptor = human NK2 receptor (Homo sapiens (Human), UniProt P21452); experiment: Human NK2 radioligand binding assay ([125I]-Neurokinin A)
Protocol: as §1

circulating LH levels = experiment: Castrated male rat model, circulating levels of luteinizing hormone (LH); assay type: in vivo; conditions: castrated male Sprague-Dawley rats, single intravenous 10 mg/kg dose, 1 hour after dosing
Protocol: 1 on lutenizing hormone (‘LH’) plasma levels in castrated male, Sprague-Dawley rats measured 1 hour after dosing. […] Vehicle, N=10 rats; Compound no. 1, N=9 rats.
19 on lutenizing hormone (‘LH’) plasma levels in castrated male, Sprague-Dawley rats measured 1 hour after dosing. […] Vehicle, n=5 rats; Compound no. 19, n=5 rats.
Castrated Male Rat Model to Assess the Effect of Compound of Invention on Circulating Levels of Luteinizing Hormone (LH).
In humans and rodents, castration is well-precedented to permit heightened, persistent GnRH signaling and consequent elevation of circulating LH. Thus, a castrated rat model is used to provide a broad index for measurement of LH inhibition as a marker of test compound inhibition of the GnRH signaling pathway.
Castrated adult male Sprague-Dawley (SD) rats (150-175 g,) were purchased from Janvier (St Berthevin, France). […] The animals were allowed 2 weeks of postoperative recovery prior to study. Animals were handled on a daily basis. Standard diet and tap water were provided ad libitum. Animal cage litters were changed once a week. […]
After basal sampling (T0) a single dose of compounds of the invention or vehicle was administrated intravenously to rats. […] Serum LH levels were determined using radioimmunoassay kit from RIAZEN—Rat LH, Zentech (Liège, Belgium). […]

[1] = system: plasma testosterone levels; experiment: Gonad-intact adult male rat, circulating levels of testosterone; conditions: gonad-intact male Sprague-Dawley rats, single intravenous 50 mg/kg dose, over 210 minute test period (AUC)

Sequence of human NK2 receptor (P21452 whole entry): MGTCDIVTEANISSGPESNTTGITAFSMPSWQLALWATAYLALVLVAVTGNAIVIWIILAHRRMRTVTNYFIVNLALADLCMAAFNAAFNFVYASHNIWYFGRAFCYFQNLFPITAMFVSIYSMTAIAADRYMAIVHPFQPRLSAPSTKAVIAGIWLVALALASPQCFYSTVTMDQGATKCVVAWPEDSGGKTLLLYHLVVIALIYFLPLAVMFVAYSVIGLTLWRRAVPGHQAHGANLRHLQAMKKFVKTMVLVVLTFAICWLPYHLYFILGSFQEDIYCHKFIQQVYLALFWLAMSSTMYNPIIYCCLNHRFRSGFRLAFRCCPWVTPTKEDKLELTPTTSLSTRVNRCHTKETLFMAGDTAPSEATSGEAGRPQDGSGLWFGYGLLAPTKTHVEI
Sequence of human NK1 receptor (P25103 whole entry): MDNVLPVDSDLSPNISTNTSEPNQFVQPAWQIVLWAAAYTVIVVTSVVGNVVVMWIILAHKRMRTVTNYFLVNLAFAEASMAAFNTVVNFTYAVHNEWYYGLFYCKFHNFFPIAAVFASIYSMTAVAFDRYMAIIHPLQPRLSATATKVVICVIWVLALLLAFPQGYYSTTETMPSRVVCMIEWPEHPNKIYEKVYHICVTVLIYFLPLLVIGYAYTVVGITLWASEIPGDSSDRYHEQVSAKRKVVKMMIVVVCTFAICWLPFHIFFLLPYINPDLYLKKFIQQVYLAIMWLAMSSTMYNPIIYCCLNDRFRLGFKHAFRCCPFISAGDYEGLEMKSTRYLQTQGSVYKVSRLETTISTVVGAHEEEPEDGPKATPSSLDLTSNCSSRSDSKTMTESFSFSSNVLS

SMILES | inhibition at 10 µM (human NK1 receptor) | inhibition at 10 µM (human NK2 receptor) | circulating LH levels (circulating LH levels) | plasma testosterone levels [1]
Cc1nc(-c2nnc3n2CCN(C(=O)c2ccc(-c4cccs4)cc2)[C@@H]3C)co1 [compound 11, (R)-(8-methyl-3-(2-methyloxazol-4-yl)-5,6-dihydro-[1,2,4]triazolo[4,3-a]pyrazin-7(8H)-yl)(4-(thiophen-2-yl)phenyl)methanone] | < 10% | < 25% | – | –
Cc1nc(-c2nnc3n2CCN(C(=O)c2ccc(-c4cccs4)cc2)C3)cs1 [compound 3, (3-(2-methylthiazol-4-yl)-5,6-dihydro-[1,2,4]triazolo[4,3-a]pyrazin-7(8H)-yl)(4-(thiophen-2-yl)phenyl)methanone] | < 10% | < 10% | – | –
Cc1csc(-c2nnc3n2CCN(C(=O)c2ccc(-c4cccs4)cc2)[C@@H]3C)n1 [Compound no. 19, (R)-(8-methyl-3-(4-methylthiazol-2-yl)-5,6-dihydro-[1,2,4]triazolo[4,3-a]pyrazin-7(8H)-yl)(4-(thiophen-2-yl)phenyl)methanone] | – | – | significantly suppressed | –
C[C@@H]1c2nnc(-c3cccc(O)n3)n2CCN1C(=O)c1ccc(-c2cccs2)cc1 [compound 31, (R)-(3-(6-hydroxypyridin-2-yl)-8-methyl-5,6-dihydro-[1,2,4]triazolo[4,3-a]pyrazin-7(8H)-yl)(4-(thiophen-2-yl)phenyl)methanone] | < 10% | < 10% | – | –
Cc1nc(-c2nnc3n2CCN(C(=O)c2ccc(-c4cccs4)cc2)[C@@H]3C)cs1 [Compound no. 1, (R)-(8-methyl-3-(2-methylthiazol-4-yl)-5,6-dihydro-[1,2,4]triazolo[4,3-a]pyrazin-7(8H)-yl)(4-(thiophen-2-yl)phenyl)methanone] | – | – | significantly suppressed | significantly suppressed
